Laboratory results: US4704384A, “Aziridinyl quinone antitumor agents” (priority 1981, dated 1987)
Values joined by “and” are separate entries in the source; they are usually repeats but may differ in a detail not shown here. Equal entries are not always repeated. “Also recorded” adds a separate entry of the source. Where two headings read alike, the source gives them in different places.

Key:
[1] = system: lymphoid leukemia L1210; type: in vivo, murine
Excerpt: (§1) A third IC tumor model, the ependymoblastoma system, was also studied. This system requires intracerebral implantation of a solid tumor fragment while the IC L1210 and IC P388 systems utilize IC inoculated ascites tumor fluid. All three use IP drug treatment however. […] Cures (survivors from the group of six mice on the last day of the experiment) are indicated.

[2] = system: lymphoid leukemia L1210
Description: ^b Ip tumor implantation, ip QD19 treatment schedule.
^e ILS = [(treated survival + control survival) × 100%] - 100%
The L1210, P388 and B16 test systems described in Table II utilize intraperitoneal (IP) tumor implantation and IP drug treatment while the Lewis lung system employs subcutaneous tumor implantation and IP treatment. All three CNS tumor models (Table III) use intracerebral (IC) tumor implantation and IP treatment.
Aqueous saline solution (0.9%) was used as the drug vehicle. Normally, five doses were employed per experiment with the top dose chosen to produce toxicity. The lower doses were 50% of each preceeding dose.
Consistent with NCI antitumor test protocols, intraperitoneal (IP) administration of the drug was employed with all five tumor systems investigated. Tumor implantation was IP in the systems designated IP leukemia L1210 and P388 as well as B16 melanoma. Intracerebral (IC) tumor implantation was utilized in the IC L1210 and ependymoblastoma tumor systems.

[3] = system: Lewis lung carcinoma; assay: Lewis lung carcinoma test (subcutaneous implant, IP drug); type: in vivo, murine
Excerpt: ^c Subcutaneous tumor implantation, ip QD515 treatment schedule.

[4] = Approximation of human dose from mouse optimum dose; conditions: approximated from optimum dose of 2 mg/kg in the mouse
Description: Using the assumptions and constants of Freireich et al., Cancer Chemother. Rep., 50, 219 (1966), and an optimum dose of 2 mg/kg in the mouse, an average human maximum tolerated dose of 10 mg per dose can be approximated. An active dose range of 2.5-10 mg per dose can be estimated.

[5] = system: lymphocytic leukemia P388; assay: Intracerebral (IC) P388 antitumor test; type: in vivo, murine; conditions: for ILS: IP
Excerpt: as §1

[6] = system: B16 melanocarcinoma; type: in vivo, murine
[7] = system: lymphocytic leukemia P388; type: in vivo, murine; conditions: for survivors, P388: Table XI, parentheses, per 6
[8] = system: ependymoblastoma; type: in vivo, murine; conditions: for survivors, EM: parentheses, per 6
Excerpt: ^c Ic tumor implantation, ip QD15 treatment schedule.
as §1

[9] = Room temperature water solubility; type: physicochemical
Description: In the following examples, all melting points are uncorrected and were recorded on a Thomas-Hoover capillary melting point apparatus. Elemental analyses were performed by NIAMDD, NIH, Bethesda, Md. Fluoranil, ethyleneimine and 2-methylethyleneimine were obtained commercially. […] New compounds were identified by nmr and ir spectroscopy. In the tetraamino derivatives, the methylene protons of the aziridine rings usually occurred as a singlet at δ2.0-2.2 in CDCl3 or DMSO-d6. This absorption appeared at δ2.40 (CDCl3) for compound 11. Carbonyl absorption frequencies (nujol mull) occurred in the range 1620-1640 cm^-1 for the tetraamino compounds. Satisfactory elemental analyses (+0.4% of calculated values) are indicated by elemental symbols in Table VII. Room temperature water solubilities were determined by the incremental addition (pipet) of water to a weighed amount of compound with shaking. The solubility values in Table VII must be considered as approximate.

[10] = IP, QD1-9, 1.56 mg/kg/injection
[11] = IP, QD1-9, 3.12 mg/kg/injection
[12] = IP, QD1-9, 6.25 mg/kg/injection

With `CCOC(=O)NC1=C(N2CC2)C(=O)C(NC(=O)OCC)=C(N2CC2)C1=O` [Compound 9, 2,5-DIAZIRIDINYL-3,6-BIS(CARBOETHOXYAMINO)-1,4-BENZOQUINONE] the OD [1] was 3.12 mg/kg, the “activity in IC L1210” value [1] was “reproducible activity; also recorded: substantial” and the ILS [1, 10] was 51% and 46%. The ILS [1, 11] was 84% and 79%, the ILS [1, 12] was 10% and 3% and the “% ILS” value ([1]; Table IV summary, QD1-9, at OD) was 84% and 79% and 63% and 58%. The OD ([1]; Table IV, QD1-9) was 3 mg/kg/injection and 5 mg/kg/injection, the ILS ([1]; at OD 3.12 mg/kg) was 79% and 84% and the “activity in IP L1210” value [2] was “greater L1210 activity on the QD1-9 schedule; also recorded: very active”. It also gave an ILS ([2]; IP, QD1-9, 0.88 mg/kg/injection) of 32%, an ILS ([2]; IP, QD1-9, 1.30 mg/kg/injection) of 60% and an ILS ([2]; IP, QD1-9, 2.00 mg/kg/injection) of 125%. For the same compound, the ILS [2, 12] was 27%, the “increase in life span (ILS)” value ([2]; Q4D and QD1-9 schedules) was greater than 25% and the “% ILS” value ([2]; Q4D schedule) was 54%. The “optimum dose (OD)” value ([2]; QD1-9, mouse) was 2 mg/kg and 2 to 3 mg/kg, the ILS ([2]; QD1-9, reproducible) was greater than 100% and the “% ILS” value ([2]; Table IV summary, QD1-9, at OD) was 100%. For the same compound, the OD ([2]; Table IV, QD1-9) was 3 mg/kg/injection and 2 mg/kg/injection and 4 mg/kg/injection, the “activity in Lewis lung” value [3] was “Marginal activity” and the ILS ([3]; IP, 2.00 mg/kg/injection, 2 mg/kg) was 38% and 34%. For the same compound, the “average human maximum tolerated dose” value [4] was roughly 10 mg per dose, the “activity in IC P388” value [5] was “reproducible activity; also recorded: substantial” and the ILS ([5]; QD1-9, 0.39 mg/kg/injection) was 7% and 2%. The ILS ([5]; QD1-9, 0.78 mg/kg/injection) was 27% and 25%, the ILS ([5]; QD1-9, 1.56 mg/kg/injection) was 37% and 51% and the ILS ([5]; QD1-9, 3.12 mg/kg/injection) was 39% and 31%. For the same compound, the “% ILS” value ([5]; Table IV summary, QD1-9, at OD) was 51% and 39%, the OD ([5]; Table IV, QD1-9) was 1.5 mg/kg/injection and 3 mg/kg/injection and the OD [6] was 3.12 mg/kg. For the same compound, the “activity in B16 melanoma” value [6] was “very active”, the ILS [6, 10] was 38% and 44% and 58% and the ILS [6, 11] was 58% and 43% and 70%. For the same compound, the “% ILS” value ([6]; Table IV summary, QD1-9, at OD) was 94% and 70% and 62%, the OD ([6]; Table IV, QD1-9) was 3 mg/kg/injection and the “activity (ILS)” value ([6]; as high as, at OD of 3.12 mg/kg) was no more than 70%. The “activity in IP P388” value [7] was “very active”, the “optimum dose (OD)” value [7] was 1 to 2 mg/kg and the ILS ([7]; IP, QD1-9, 0.78 mg/kg/injection) was 111% and 99%. For the same compound, the OD ([7]; Table IV, QD1-9) was 1.6 mg/kg/injection and 0.8 mg/kg/injection, the “survivors of 6 test mice” value ([7]; Table IV, day 30) was 1 and the “survivors, P388” value [7] was 1. The T-C weight change ([7]; day 5, QD1-9, 6.25 mg/kg/injection) was -6.1 grams, the “activity in ependymoblastoma” value [8] was “curative in the EM system; also recorded: very active” and the optimum dose [8] was 1 to 2 mg/kg. The “Cures (animals alive per six)” value ([8]; 1.00 mg/kg/injection, day 60 (expts 136/144)) was 1/6 and 5/6, the “Cures (animals alive per six)” value ([8]; 1.00 mg/kg/injection, day 99 (expt 133)) was 3/6 and the “Cures (animals alive per six)” value ([8]; 2.00 mg/kg/injection, day 60 (expts 136/144)) was 5/6. The “Cures (animals alive per six)” value ([8]; 2.00 mg/kg/injection, day 99 (expt 133)) was 4/6, the “Cures (animals alive per six)” value ([8]; 4.00 mg/kg/injection, day 60) was 4/6 and the ILS ([8]; QD1-5, 0.25 mg/kg/injection, expt 144) was 30%. For the same compound, the ILS ([8]; QD1-5, 0.50 mg/kg/injection, expt 144) was 62%, the ILS ([8]; QD1-5, 1.00 mg/kg/injection, expt 133 (day 99)) was 348% and the ILS ([8]; QD1-5, 1.00 mg/kg/injection, expts 136/144 (day 60)) was 126% and 171%. The ILS ([8]; QD1-5, 2.00 mg/kg/injection, expt 133 (day 99)) was 349%, the ILS ([8]; QD1-5, 4.00 mg/kg/injection, expt 136 (day 60)) was 276% and the OD ([8]; Table IV, QD1-5) was 2 mg/kg/injection and 1 mg/kg/injection. The “survivors of 6 test mice” value ([8]; Table IV, day 60) was 5 and 4 and 6, the “ILS (%) EM” value ([8]; Table XI, outstanding activity) was 277% and the “survivors, EM” value ([8]; Table XI) was 5. The T-C weight change ([8]; day 5, 0.25 mg/kg/injection) was -1.5 grams, the T-C weight change ([8]; day 5, 0.50 mg/kg/injection) was -1.8 grams and the T-C weight change ([8]; day 5, 8.00 mg/kg/injection) was -5.0 grams.

With `NC1=C(N2CC2)C(=O)C(N)=C(N2CC2)C1=O` [Compound 33, 2,5-DIZAIRIDINYL-3,6-DIAMINO-1,4-BENZOQUINONE] the “activity in IC L1210” value [1] was “most active; also recorded: significant activity”, the OD ([1]; QD1-9, Table X) was 0.3 mg/kg/injection and the ILS ([1]; QD1-9, at OD, Table X) was 60% and 59%. For the same compound, the OD ([2]; Day 1 only (1 injection), Table VIII) was 1.0 mg/kg/injection and 0.5 mg/kg/injection, the ILS ([2]; Q4D, at OD, Table VIII) was 161% and 124% and the “animals alive per 6” value ([2]; Q4D, day 30, at OD, Table VIII) was 3 and 2. For the same compound, the OD ([2]; QD1-9 (9 injections), Table VIII) was 0.4 mg/kg/injection and 0.3 mg/kg/injection, the ILS ([2]; QD1-9, at OD, Table VIII) was 115% and 100% and the “survivors, IP L1210” value ([2]; Table XI, parentheses, per 6) was 3. The “solubility” value [9] was “so insoluble in any solvent”, the ILS ([6]; QD1-9, at OD, Table IX) was 31% and 19% and the OD ([7]; QD1-9, Table IX) was 0.2 mg/kg/injection. The ILS ([7]; QD1-9, at OD, Table IX) was 171% and 156%, the “animals alive per 6” value ([7]; QD1-9, day 30, at OD, Table IX) was 1 and the “survivors, P388” value [7] was 1. For the same compound, the “activity in ependymoblastoma” value [8] was “among the most active materials”, the OD ([8]; QD1-5, Table X) was 0.2 mg/kg/injection and the ILS ([8]; QD1-5, at OD, Table X) was 215% and 177%. The “animals alive per 6” value ([8]; QD1-5, day 60, at OD, Table X) was 4 and 6 and the “survivors, EM” value ([8]; Table XI) was 6.
